The source of these data is patent US20090176792A1, “SUBSTITUTED DIBENZHYDRYLPIPERAZINES” (AUSPEX PHARMACEUTICALS, INC., priority 2008, published 2009).

A short description of series [1]: In vitro liver microsomal stability assay. Conditions: human liver microsomes 1 mg per mL, 1 μM, 37° C., vs non-isotopically enriched drug. As for the experimental part:
Test compounds were prepared as solutions in 20% acetonitrile-water and added to the assay mixture (final assay concentration 1 μM) and incubated at 37° C. Final concentration of acetonitrile in the assay should be <1%. Aliquots (50 μL) were taken out at times 0, 15, 30, 45, and 60 min, and diluted with ice cold acetonitrile (200 μL) to stop the reactions. Samples were centrifuged at 12,000 RPM for 10 min to precipitate proteins. Supernatants were transferred to micro centrifuge tubes and stored for LC/MS/MS analysis of the degradation half-life of the test compounds.
(In general: Liver microsomes are a subcellular fraction often used to study metabolism.)

A further series has as its target cytochrome P450 CYP2D6 (Homo sapiens, UniProt P10635). Particulars: cited from earlier work.

cytochrome P450 CYP2D6, sequence (P10635 whole entry): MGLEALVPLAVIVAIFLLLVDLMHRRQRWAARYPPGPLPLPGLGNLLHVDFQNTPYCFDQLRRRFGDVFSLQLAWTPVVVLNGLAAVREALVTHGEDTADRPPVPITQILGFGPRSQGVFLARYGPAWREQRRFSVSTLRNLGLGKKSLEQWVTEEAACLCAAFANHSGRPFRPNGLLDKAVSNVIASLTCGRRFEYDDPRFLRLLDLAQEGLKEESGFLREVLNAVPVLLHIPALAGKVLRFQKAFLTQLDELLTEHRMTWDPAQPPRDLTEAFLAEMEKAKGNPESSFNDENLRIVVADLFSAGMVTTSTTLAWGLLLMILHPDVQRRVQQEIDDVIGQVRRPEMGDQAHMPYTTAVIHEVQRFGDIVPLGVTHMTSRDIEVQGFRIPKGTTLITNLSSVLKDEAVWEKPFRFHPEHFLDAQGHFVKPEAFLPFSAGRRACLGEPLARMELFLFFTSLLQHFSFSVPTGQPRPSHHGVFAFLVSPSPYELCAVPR

Turning to `CN1CCN(C(c2ccccc2)c2ccccc2)CC1` [Example 1, 1-benzhydryl-4-methylpiperazine], the “% Increase of HLM degradation half-life” value in series [1] (column 0%-5%) is given as “+ (0%-5%)”. For the same compound, at cytochrome P450 CYP2D6, the “inhibition of cytochrome P450 CYP2D6” value is “inhibit”.
In the case of `[2H]C([2H])([2H])N1CCN(C(c2ccccc2)c2ccccc2)CC1` [Example 2, d3-1-Benzhydryl-4-methylpiperazine], the “% Increase of HLM degradation half-life” value in series [1] (column 5-15%) is listed as “+ (5-15%)”.
